Experiments:
[1] = system: troubles moteurs gastro-duodénaux (dyspepsie hyposthénique en rapport avec un état dépressif psychasthénique); experiment: Double-blind cross-over clinical and external digestive electromyographic study versus placebo (Exemple IV); assay type: in vivo, humaine
Procedure: Effet normalisateur des compositions à base d'acide 7-[(3-chloro 6-methyl 5,5-dioxo 6,11-dihydrodibenzo (c,f) thiazepin 1,2-11-yl) amino] heptanoique sur les troubles moteurs gastro-duodénaux en clinique humaine.
Evaluer l'efficacité du principe actif dans trois posologies différentes : • .
Les malades ont été divisés en deux groupes de 12 sujets • . Un 1er groupe de 12 cas a reçu successivement et en cross- over 1 comprimé par jour de 12,5mg et de 25mg de PA. (Un malade de ce groupe a abandonné le traitement) • . Un 2ème groupe de 12 cas a reçu successivement et en cross- over 2 comprimés par jour, soit 2 x 12.
Chaque sujet avait au minimum : • 1. Un syndrome dyspeptique hyposténique, avec • - ballonnements • - pesanteur • - somnolence post-prandiale • - brûlures et / ou douleurs épigastriques • - états nauséeux • 2. Ln état dépressif psycnasténique, avec • - dépression • - inhibition psycho-motrice • - asthénie • - anxiété psychique et / ou somatisée • - troubles du sommeil (difficulté à l'endormissement ou réveil précoce) • 3. Un électromyogramme digestif externe pathologique, avec un retard d'apparition des ondes gastriques après le repas (d'au moins 2 heures).
• . Selon la gravité clinique, de 0 à 3 • . Pour l'électromyogramme digestif, chez un sujet normal, les ondes gastriques apparaissent dès l'ingestion d'un repas équilibré et persistent pendant 5 heures en moyenne. Cette situation était côtée 0.
Chez le dyspeptique hyposténique, il existe une absence d'ondes gastriques dans la phase post-prandiale, qui peut durer plus de 3 heures. Cette situation était côtée 2.
Si, après le traitement, la sidération diminuait, elle était côtée 1.
L'examen clinique était répété après chaque passage du produit actif, ou de placebc, soit 5 fois par milade.
En ce qui concerne les tracés EMG, nous avions prévu quatre enregistrements par sujet : avant traitement, après chaque passage de Principe Actif, et après le dernier passage Placebo.

[2] = system: musculature lisse tube digestif; experiment: Pharmacological studies: antispasmodic action and restoration of digestive smooth muscle motility
fibre lisse = experiment: Anti-serotonin action shown directly on smooth fibre
[3] = system: ulcère produit par la contrainte; experiment: Restraint ulcer protection; assay type: in vivo, animal
[4] = 1 x 25 mg/jour, 15 jours, Groupe I, 11 cas
[5] = 1 x 12,5 mg/jour, 15 jours, Groupe I, 11 cas
[6] = 2 x 25mg/jour, 15 jours, Groupe II, 12 cas
[7] = 2 x 12,5mg/jour, 15 jours, Groupe II, 12 cas

## CN1c2ccccc2C(NCCCCCCC(=O)O)c2ccc(Cl)cc2S1(=O)=O (racemic) [principe actif, acide 7-[(3-chloro 6-méthyl 5,5-dioxo 6,11-dihydrodibenzo (c,f)thiazepin 1,2-11-yl)amino] heptanoique]
[1]; [4]
  absence d'effet: 18,2%
  très bon effet thérapeutique global: 81,8%
[1]; [5]
  activité moyenne: 54,6%
  bonne activité (très nette amélioration de l'ensemble des symptômes digestifs, psychiques, ainsi que des tracés EMG externes): 45,4%
[1]; [6]
  activité bonne: 83,3%
  activité moyenne: 16,6%
[1]; [7]
  Bon effet thérapeutique global: 66,6%
  effet moyen: 33,3%
[1]; 12,5mg, 25mg et 50mg, both groups
  activité globale par rapport au placebo: toujours été nettement supérieur au placebo
[2]
  action antispasmodique: importante
  restauration de la motricité (atonie de la musculature lisse): capables de restaurer une motricité constante et bien coordonnée
Fibre lisse
  action anti sérotonine: très importante
[3]; accompanying the protective effect
  effet anti-secrétoire: ne s'accompagne pas d'effet anti-secrétoire
[3]; in vivo
  protection contre l'ulcère produit par la contrainte: protégeait l'animal contre l'ulcère produit par la contrainte
